From patent US7776882B2, “2-amino-3,4-dihydro-quinoline derivatives useful as inhibitors of β-secretase (BACE)” (priority 2006, dated 2010)

How the values were obtained:
[1] = molecular target: T1, human BACE-1 (Homo sapiens, UniProt P56817); assay: In Vitro BACE Assay run by CEREP (Example 14); format: biochemical; conditions: recombinant enzyme, 60 min at 37° C., pH 4.5; for % Inhibition 1 μM / inhibition at 1 µM: 1 μM compound; for inhibition at 0.3 µM / % Inhibition 0.3 μM: 0.3 μM compound
T1 construct: purchased CEREP (contract assay) 761-B
T1 sequence (P56817 46-501): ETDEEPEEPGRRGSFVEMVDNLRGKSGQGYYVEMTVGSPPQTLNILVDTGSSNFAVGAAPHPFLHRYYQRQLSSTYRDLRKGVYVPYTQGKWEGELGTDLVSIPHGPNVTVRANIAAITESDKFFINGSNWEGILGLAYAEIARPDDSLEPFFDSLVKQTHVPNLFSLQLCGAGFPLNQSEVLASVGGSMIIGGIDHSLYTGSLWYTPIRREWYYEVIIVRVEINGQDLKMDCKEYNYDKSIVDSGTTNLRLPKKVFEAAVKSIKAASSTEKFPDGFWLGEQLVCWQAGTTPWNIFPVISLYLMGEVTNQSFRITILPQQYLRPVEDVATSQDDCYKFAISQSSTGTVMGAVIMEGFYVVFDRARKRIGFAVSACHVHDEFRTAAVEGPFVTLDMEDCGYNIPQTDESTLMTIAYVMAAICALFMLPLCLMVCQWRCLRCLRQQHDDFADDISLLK
Protocol: This assay was run by CEREP (Catalog Ref. 761-B, Referred to SOP No. 1C131; ERMOLIEFF, J., LOY, J. A., KOELSCH, G. and TANG, J., Proteolytic activation of recombinant pro-memapsin 2 (pro-BACE) studied with new fluorogenic substrates, Biochemistry, (2000) Vol. 39, p. 12450).
More specifically the assay, run at 50 μL in a 96 well plate, evaluated the effect of test compound on the activity of the human BACE-1 quantified by measuring the formation of Mca-S-E-V-N-L-NH2 from Mca-S-E-V-N-L-D-A-E-F-R-K(Dnp)-R-R-NH2, using a recombinant enzyme.
The test compound, reference compound or water (control) was added to a buffer containing 0.09 M sodium acetate (pH 4.5) and 0.25 μg BACE-1. Compound interference with the fluorimetric detection method due to autofluorescence was then checked by measurements at the wavelengths defined to evaluate the enzyme activity. Thereafter, the reaction was initiated by adding 7.5 μM of the substrate Mca-S-E-V-N-L-D-A-E-F-R-K(Dnp)-R-R-NH2 and the mixture was incubated for 60 min at 37° C. For control basal measurement, the substrate was omitted from the reaction mixture. Immediately after the incubation, the fluorescence intensity emitted by the reaction product Mca-S-E-V-N-L-NH2 was measured at λex=320 nm and λem=405 nm using a microplate reader (Ultra, Tecan). The standard inhibitory reference compound was OM99-2, which was tested in each experiment at several concentrations to obtain an inhibition curve from which its IC50 value was calculated.

[2] = molecular target: T2, β-secretase (BACE) (Homo sapiens, UniProt P56817); assay: In Vitro BACE FS1 % Inhibition Assay (Example 10); format: biochemical; conditions: FS1 substrate, values below about 25% (including negative) within noise; for % Inhibition (Example 10) @ 0.3 μM: 0.3 μM compound; for % Inhibition (Example 10) @ 1 μM: 1 μM compound; for % Inhibition (Example 10) @ 3 μM: 3 μM compound
T2 construct: purchased Panvera
T2 sequence (P56817 46-501): as above
Protocol: The following assay buffers were prepared and used in this assay: (1) enzyme assay buffer (0.05 M sodium acetate, pH5, 0.1% PEG8000 (w/v)), (2) substrate assay buffer (0.05 M sodium acetate, pH5), and (3) compound vehicle (30% DMSO in 50 mM HEPES, pH 7.4).
The FS1-substrate stock solution was prepared in DMSO as a 10 mg/mL solution. The FS1-substrate working solution was prepared by diluting the 10 mg/mL stock solution with substrate assay buffer to a final concentration of 300 μg/mL. The β-secretase (BACE) working solution was prepared by diluting a 0.83 mg/mL BACE stock solution with enzyme assay buffer to a final concentration of 4 μg/mL.
Test compounds were dissolved in DMSO to 10 mM. Compounds were further diluted in vehicle to various concentrations in the range of 405 μM to 4.05 μM (13.5×final compound concentration in screening plate).
The screening procedure for this assay was as follows: 15 μL of BACE working solution was pipetted into each well of a 96-well plate. To each well was then pipetted 2 μL of test compound at the selected concentration. Test compound and BACE were then mixed with a pipettor and incubated for 20 min at room temperature. To each well was then added 10 μL of the FS1 substrate working solution. The plates were then incubated for 1 hour at room temperature. The fluorescence for each well was then measured on an LJL analyst (Ex 360 nm/Em 530 nm).
The procedure for the blank (negative control) was as follows. 15 μL of assay buffer was pipetted into each well to be used as a blank control. To each well was then added 2 μL of vehicle and 10 μL of FS1-substrate working solution. The plates were then incubated for 1 hour at room temperature. The fluorescence was measured on an LJL analyst (Ex 360 nm/Em 530 nm).
The procedure for the positive control was as follows: 15 μL of BACE working solution was pipetted into each well to be used as a positive control. To each well was then pipetted 2 μL of vehicle. Vehicle and BACE were then mixed with a pipettor and incubated for 20 min at room temperature. To each well was then added 10 μL of the FS1 substrate working solution. The plates were then incubated for 1 hour at room temperature. The fluorescence (Fl) was then measured on an LJL analyst (Ex 360 nm/Em 530 nm).
For test compounds, % inhibition was determined at each concentration as follows: […]

SMILES | % Inhibition (Example 10) @ 0.3 μM [2] | % Inhibition (Example 10) @ 1 μM [2] | % Inhibition (Example 10) @ 3 μM [2] | inhibition at 1 µM [1] | IC50 [1] | other results
Nc1nc2ccc(Oc3ccccc3)cc2cc1C(CCC(=O)NC1CN2CCC1CC2)C1CCOCC1 (mixture of isomers) [compound 52] |  |  |  |  |  | % Inhibition 1 μM [1]: 6%
Nc1nc2ccc(Oc3ccccc3)cc2cc1CCNC(=O)C1CCCCC1 [compound 4] | 14% | 9% | 42% |  |  | 
COCCNC(=O)CCc1cc2cc(Oc3ccccc3)ccc2nc1N [compound 5] | 22% | 41% | 37% |  |  | 
CCN(CC)CCNC(=O)CCc1cc2cc(Oc3ccccc3)ccc2nc1N [compound 10] | −11% | −13% | −0.3% |  |  | 
Nc1nc2ccc(Oc3ccccc3)cc2cc1CCC(=O)NCC1CCCCC1 [compound 11] |  | 5% | 81% |  |  | 
CCCCNC(=O)CCc1cc2cc(Oc3ccccc3)ccc2nc1N [compound 12] | −2% | 0.8% | 19% |  |  | 
Nc1nc2ccc(Oc3ccccc3)cc2cc1CCC(=O)N[C@H](CO)CC1CCCCC1 [compound 14] | −14% | −27% | −15% |  |  | 
Nc1nc2ccc(Oc3ccccc3)cc2cc1CCCC(=O)NC12CC3CC(CC(C3)C1)C2 [compound 17] | 19% | 20% | 46% |  |  | 
CN(C(=O)CCCc1cc2cc(Oc3ccccc3)ccc2nc1N)C1CCCCC1 [compound 18] | 29% | 26% | 36% |  |  | 
COC(=O)[C@H]1CC[C@@H](NC(=O)CCC(c2cc3cc(Oc4ccccc4)ccc3nc2N)C2CCCCC2)CC1 (stereo partly drawn) [compound 19] | −15% |  | 24% |  |  | 
COC(=O)[C@H]1CC[C@H](NC(=O)CCC(c2cc3cc(Oc4ccccc4)ccc3nc2N)C2CCCCC2)CC1 (stereo partly drawn) [compound 20] | −8% | −11% | 34% |  |  | 
Nc1nc2ccc(Oc3ccccc3)cc2cc1C(CCC(=O)N[C@H]1CC[C@@H](C(=O)O)CC1)C1CCCCC1 (stereo partly drawn) [compound 21] | 0.5% | −1% | 10% |  |  | 
Nc1nc2ccc(Oc3ccccc3)cc2cc1C(CCC(=O)N[C@H]1CC[C@H](C(=O)O)CC1)C1CCCCC1 (stereo partly drawn) [compound 22] | 0.6% | −19% | −3% |  |  | 
Nc1nc2ccc(Oc3ccccc3)cc2cc1C(CCC(=O)N(Cc1ncc[nH]1)C1CCCCC1)C1CCOCC1 (stereo not drawn) [compound 30] |  |  |  | 91% | 410 nM | 
Nc1nc2ccc(Oc3ccccc3)cc2cc1C(CCC(=O)NCc1nnnn1Cc1ccccc1)C1CCOCC1 (stereo not drawn) [compound 31] |  |  |  | 59% | 740 nM | inhibition at 0.3 µM [1]: 32%
Nc1nc2ccc(Oc3ccccc3)cc2cc1C(CCC(=O)NCC1CC1)C1CCOCC1 (stereo not drawn) [compound 36] |  |  |  | 59% | 610 nM | inhibition at 0.3 µM [1]: 49%
Nc1nc2ccc(Oc3ccccc3)cc2cc1C(CCC(=O)N(CCN1CCCC1)C1CCCCC1)C1CCCCC1 (stereo not drawn) [compound 37] |  |  |  | 81% | 580 nM | inhibition at 0.3 µM [1]: 27%
CN(Cc1ccccc1)C(=O)CCC(c1cc2cc(Oc3ccccc3)ccc2nc1N)C1CCCCC1 (stereo not drawn) [compound 38] |  |  |  |  |  | % Inhibition 0.3 μM [1]: 8%; % Inhibition 1 μM [1]: 9%
Cn1ccnc1CN(C(=O)CCC(c1cc2cc(Oc3ccccc3)ccc2nc1N)C1CCCCC1)C1CCCCC1 (stereo not drawn) [compound 39] |  |  |  |  | 490 nM | inhibition at 0.3 µM [1]: 16%

SMILES | % Inhibition (Example 10) @ 0.3 μM [2] | % Inhibition (Example 10) @ 1 μM [2] | % Inhibition (Example 10) @ 3 μM [2] | inhibition at 1 µM [1] | IC50 [1] | other results
CN(CC1CCCCC1)C(=O)CCC(c1cc2cc(Oc3ccccc3)ccc2nc1N)C1CCCCC1 (stereo not drawn) [compound 40] |  |  |  |  | 650 nM | % Inhibition 0.3 μM [1]: 13%; % Inhibition 1 μM [1]: 54%
Nc1nc2ccc(Oc3ccccc3)cc2cc1C(CCC(=O)N(c1ncc[nH]1)C1CCCCC1)C1CCCCC1 (stereo not drawn) [compound 41] |  |  |  | 79% | 470 nM | inhibition at 0.3 µM [1]: 11%
Nc1nc2ccc(Oc3ccccc3)cc2cc1C(CCC(=O)N(CCO)C1CCCCC1)C1CCCCC1 (stereo not drawn) [compound 42] |  |  |  | 58% | 810 nM | 
Cn1ccnc1CN(CC(C)(C)C)C(=O)CCC(c1cc2cc(Oc3ccccc3)ccc2nc1N)C1CCCCC1 (stereo not drawn) [compound 43] |  |  |  | 88% | 650 nM | 
CC(C)(C)OC[C@@H](NC(=O)CC[C@H](c1cc2cc(Oc3ccccc3)ccc2nc1N)C1CCCCC1)C(=O)N1CCOCC1 [compound 45] |  |  |  | 46% | 1100 nM | 
Nc1nc2ccc(Oc3ccccc3)cc2cc1C(CCC(=O)N(CCO)C1CCCCC1)C1CCOCC1 (stereo not drawn) [compound 50] |  |  |  |  | 740 nM | % Inhibition 1 μM [1]: 87%
Nc1nc2ccc(Oc3ccccc3)cc2cc1C(CCC(=O)NC1CN2CCC1CC2)C1CCOCC1 (stereo not drawn) [compound 51] |  |  |  | 56% | 1200 nM | 
Nc1nc2ccc(Oc3ccccc3)cc2cc1C(CCC(=O)N(Cc1c[nH]cn1)C1CCCCC1)C1CCOCC1 (stereo not drawn) [compound 53] |  |  |  | 90% | 460 nM | 
Cn1ccnc1CN(C(=O)CCC(c1cc2cc(Oc3ccccc3)ccc2nc1N)C1CCOCC1)C1CCCCC1 (stereo not drawn) [compound 54] |  |  |  | 85% | 450 nM | 
Cn1ccnc1CN(CC(C)(C)C)C(=O)CCC(c1cc2cc(Oc3ccccc3)ccc2nc1N)C1CCOCC1 (stereo not drawn) [compound 55] |  |  |  | 83% | 420 nM | 
Cn1ccnc1CN(CCC(C)(C)C)C(=O)CCC(c1cc2cc(Oc3ccccc3)ccc2nc1N)C1CCOCC1 (stereo not drawn) [compound 56] |  |  |  |  |  | % Inhibition 1 μM [1]: 94%
CC(C)(C)CCN(Cc1ncc[nH]1)C(=O)CCC(c1cc2cc(Oc3ccccc3)ccc2nc1N)C1CCOCC1 (stereo not drawn) [compound 57] |  |  |  |  |  | % Inhibition 1 μM [1]: 93%
CC(C)(C)CN(Cc1ncc[nH]1)C(=O)CCC(c1cc2cc(Oc3ccccc3)ccc2nc1N)C1CCOCC1 (stereo not drawn) [compound 58] |  |  |  |  |  | % Inhibition 1 μM [1]: 88%
CC(C)(C)CN(Cc1c[nH]cn1)C(=O)CCC(c1cc2cc(Oc3ccccc3)ccc2nc1N)C1CCOCC1 (stereo not drawn) [compound 59] |  |  |  |  |  | % Inhibition 1 μM [1]: 78%
Cc1ccccc1N1CCN(C(=O)CCc2cc3cc(Oc4ccccc4)ccc3nc2N)CC1 [compound 75] | 24% | −8% | 17% |  |  | 
Nc1nc2ccc(Oc3ccccc3)cc2cc1CCC(=O)N1CCN(c2cccc(F)c2)CC1 [compound 76] | 28% |  | 16% |  |  | 
C=CCC(c1cc2cc(Oc3ccccc3)ccc2nc1N)C1CCCCC1 (stereo not drawn) [compound 503] | 28% | 19% | 36% |  |  | 
COC(=O)CCCc1cc2cc(Oc3ccccc3)ccc2nc1N [compound 504] | 21% | 21% | 18% |  |  | 
